The values that follow come from US9994566B2, “Compound of 5-hydroxyl-1,7-naphthyridine substituted by aryl or heteroaryl, preparation method thereof and pharmaceutical use thereof” (SHENYANG SUNSHINE PHARMACEUTICAL CO. LTD., priority 2015, dated 2018).

The test system of assay [1] is hepatoma cells Hep3B. In words: Promotion of erythropoietin (EPO) expression in hepatoma cells Hep3B in vitro (ELISA). As to conditions: Hep3B supernatant, 24 hours, test doses 100 μmol/L and 10 μmol/L (dose of the tabulated value not given). Type of assay: cell-based, Human. The text has this: Biological Example 1: Development and Screening of In Vitro Detection Methods: Promotion of Erythropoietin Expression in Hepatoma Cells Hep3B In Vitro by HIF-PHD2 Inhibitor Compounds
The complete medium for culture of Experimental hepatoma cells Hep3B (China Center for Type Culture Collection, CCTCC) was MEM (Cat# GNM 41500, GIBCO, provided by Hangzhou Genom Biopharmaceutical Technology Co., Ltd) supplemented with 10% serum FBS (Cat#10099-141, GIBCO) and 1% P/S (Cat#GNM15140, provided by Hangzhou Genom Biopharmaceutical Technology Co., Ltd). Cells were cultured in a 37° C., 5% CO2 incubator. Experimental reagents included dimethyl sulfoxide (for molecular biology, >=99.9%, Catalog # D8418) purchased from Sigma. The ELISA kit was purchased from Quantikine IVD ELISA, Human Erythropoietin (R&D, DEP00). The test control AKB-6548 was prepared by the inventors or obtained by commercial purchase. The test substance was stored at −20° C. in the dark.
The test substance and the positive control substance were fully dissolved in sterile water or dimethylsulfoxide under dark conditions and prepared into a stock solution at a concentration of 10^−1 mol/L or 10^−2 mol/L. Each of the stock solutions was stored at −20° C. MEM medium containing 0.5% FBS was used as a diluent to dilute the stock solution of the test substance, to prepare a diluted test substance at a concentration of 100 μmol/L and 10 μmol/L. To a 96-well culture plate was added 200 μl/well (1.5 or 2.0×10^4 cells/well) of hepatoma cells Hep3B complete medium suspension and incubated overnight at 37° C. in a 5% CO2 incubator. The solution in the 96-well culture plate was removed and the cells were washed once with the MEM medium containing 0.5% FBS. 200 μl/well of the test substance was added in the dark, at a dose of 100 μmol/L and 10 μmol/L, and each dose set 2 wells, a test well and a spare well. A cell control well was prepared by replacing the test solution with the diluent (without test substance and solvent). A solvent control well was prepared by replacing the test solution with the diluent containing the corresponding concentration of solvent (dimethylsulfoxide) (without test substance). They were cultured in a 5% CO2 incubator at 37° C. for 24 hours. The supernatant was absorbed as a sample and cryopreserved at −20° C. for use. 100 μl/well of stop solution was added. OD value was detected by microplate reader A450 nm-A600 nm. The expression level of EPO (mIU/mL) promoted by the test substance was obtained according to the standard curve.

The test system of assay [2] is male Balb/c mice. In words: Effect on increasing erythrocyte of normal mice: reticulocyte (RETIC) count. Type of assay: in vivo. The conditions noted are these: four hours after the last administration; for RETIC, individual mice (Mice No. 1-8): one value per mouse; for RETIC, Average: orbital blood. On the procedure: Biological Example 3: Effect of the Compounds of the Present Invention on Increasing Erythrocyte of Normal Mice
80 male Balb/c mice were divided into 11 groups, with 8 animals for each drug group, 10 animals for blank control group. Drug group: AKB-6548, 100 mg/kg, oral administration, once a day×3; FG-4592, 25 mg/kg, oral administration, once a day×3; EPO, 100 IU/kg, Day 1 and Day 3, subcutaneous injection, as positive control groups. Each of the compounds of the present invention was orally administrated at 25 mg/kg, once a day×3. Four hours after the last administration, orbital blood of all animals were collected and treated with EDTA-K2 anticoagulant, and reticulocytes (RETIC) were counted with a blood cell automated analyzer.

Assay [3] concerns the target HIF Prolyl hydroxylases 2 (PHD2) (Homo sapiens, UniProt Q9GZT9). In words: PHD2 inhibition, fluorescence polarization (FP) detection of HIF-1α / VBC complex interaction. Type of assay: biochemical. As to conditions: PHD2 0.5 μg/μl, FAM-HIF (556-575) 1 μM, 30 minutes room temperature. The method, then:
The interaction between hypoxia-inducible factor HIF-1α and VBC complex (von Hippel-Lindau protein-Elongin B-Elongin C, VBC) was detected by Fluorescence polarization (FP) method, to measure the enzyme inhibitory activity of the HIF Prolyl hydroxylases 2 (PHD2) inhibitor compounds.
Subsequently, the desired concentration of the test compound or the positive compound was added (the compound was replaced by the buffer in the negative control and the positive control). Finally, PHD2 was added at a final concentration of 0.5 μg/μl (PHD2 was replaced by the buffer in the negative control). They were mixed well and allowed to stand at room temperature for 30 minutes in the dark followed by 95° C. water bath for 1 minute, and then the reaction was terminated. After the temperature drops to room temperature, the sample was prepared well for use. EBC buffer (50 mM Tris.HCl, 120 mM NaCl, 0.5% NP-40) was added to the corresponding wells of a black 96-well test plate. A GST-VBC complex was added to the corresponding test wells at a final concentration of 300 nM (using the wells containing only EBC buffer as blank wells). Subsequently, the corresponding PHD2 prolyl hydroxylation reaction sample was added in the dark as a substrate with a final concentration of 100 nM. After mixing well, the lateral and longitudinal fluorescence intensity values were measured using a full-wavelength multifunctional microplate reader (TECAN infinite M1000) at an excitation wavelength of […] and an emission wavelength of 518 nm.
The fluorescence polarization (mP) was calculated: mP=1000×(lateral value−G factor×longitudinal value)/(lateral value+G factor×longitudinal value) wherein, lateral value=lateral fluorescence intensity value of test well−lateral fluorescence intensity value of blank well, longitudinal value=longitudinal fluorescence intensity value of test well−longitudinal fluorescence intensity value of blank well, […]
The IC50 was calculated using the non-linear regression data analysis method of Graphpad Prism 4.0 software ([…]).
(Polarisation of emitted light reports the rotation of a fluorescent probe.)

[4] abbreviates: 100 IU/kg, subcutaneous injection, Day 1 and Day 3.

pIC50: −log10 of the molar value. “And” between values parts separate entries of the source, which are not always exact repeats. Equal values may be shown once.

Sequence of HIF Prolyl hydroxylases 2 (PHD2) (Q9GZT9 whole entry, species assumed): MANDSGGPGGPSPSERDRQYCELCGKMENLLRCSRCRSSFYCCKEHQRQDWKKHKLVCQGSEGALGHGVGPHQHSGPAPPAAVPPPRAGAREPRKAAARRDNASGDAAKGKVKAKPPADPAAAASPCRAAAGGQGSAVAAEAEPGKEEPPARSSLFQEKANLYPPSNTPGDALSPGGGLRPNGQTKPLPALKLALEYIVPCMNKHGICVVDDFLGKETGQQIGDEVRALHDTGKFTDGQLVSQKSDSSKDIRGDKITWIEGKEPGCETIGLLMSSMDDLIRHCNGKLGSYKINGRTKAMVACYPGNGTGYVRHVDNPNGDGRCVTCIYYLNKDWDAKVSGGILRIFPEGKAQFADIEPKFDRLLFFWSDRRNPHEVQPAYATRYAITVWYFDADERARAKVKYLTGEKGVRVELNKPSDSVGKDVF

For the compound `N#Cc1ccc(-c2cnc(C(=O)NCC(=O)O)c(O)c2)cc1` [AKB-6548, reference compound], the “EPO level of the test substance” value in assay [1] amounted to 0.13 mIU/mL. Besides, the “RETIC, individual mice (Mice No. 1-8)” value in assay [2] (100 mg/kg, oral, once a day × 3, listed as AKB-6548-A) was 5.3 (2×) and 6.1 and 4 (2×) and 4.2 (2×) and 4.9. For the same compound, the “RETIC, Average” value in assay [2] (100 mg/kg, oral, once a day × 3) is on record as 4.75.

As to `O=C(O)CNC(=O)c1ncc2nc(-c3ccccc3)ccc2c1O` [Compound 1], in assay [1], the “EPO level of the test substance” value is given as 0.71 mIU/mL. The pIC50 (commonly −log10 of the IC50, conventionally taken in molar units) in assay [3] is 4.74.

Regarding `COc1ccc(-c2ccc3c(O)c(C(=O)NCC(=O)O)ncc3n2)cc1` [Compound 2, 2-{5-hydroxy-[2-(4-methoxy)-phenyl]-[1,7]-naphthyridine-6-formamido} acetic acid], in assay [1], the “EPO level of the test substance” value was determined as 0.64 mIU/mL. For the same compound, the pIC50 in assay [3] is 4.96.

Turning to `Cc1nc(C(=O)NCC(=O)O)c(O)c2ccc(-c3ccc(Cl)cc3)nc12` [Compound 3, 2-{5-hydroxy-[2-(4-chloro)-phenyl]-8-methyl-[1,7]-naphthyridine-6-formamido} acetic acid], the “EPO level of the test substance” value in assay [1] is recorded as 0.52 mIU/mL. The compound further had a pIC50 in assay [3] of 4.07.

Take `COc1cccc(-c2ccc3c(O)c(C(=O)NCC(=O)O)nc(C)c3n2)c1` [Compound 4, 2-{5-hydroxy-[2-(3-methoxy)-phenyl]-8-methyl-[1,7]-napthyridine-6-formamido} acetic acid]: the “EPO level of the test substance” value in assay [1] worked out at 1.512 mIU/mL. Further, the pIC50 in assay [3] is 5.16.

As to `Cc1nc(C(=O)NCC(=O)O)c(O)c2ccc(-c3cccnc3)nc12` [Compound 5, 2-{5-hydroxy-8-methyl-[2-(3-pyridyl)]-[1,7]-naphthyridine-6-formamido} acetic acid], the “EPO level of the test substance” value in assay [1] was determined as 1.89 mIU/mL. Also, the pIC50 in assay [3] was 5.77.

On to `O=C(O)CNC(=O)c1ncc2nc(-c3ccc(Cl)cc3)ccc2c1O` [Compound 8], for which, in assay [1], the “EPO level of the test substance” value turned out to be 0.68 mIU/mL. This compound also gave a pIC50 in assay [3] of 4.37.

With `COc1ccc(-c2ccc3c(O)c(C(=O)NCC(=O)O)nc(C)c3n2)cc1` [Compound 10, 2-{5-hydroxy-8-methyl-[2-(4-methoxy)-phenyl]-[1,7]-naphthyridine-6-formamido} acetic acid], in assay [1], the “EPO level of the test substance” value is on record as 0.64 mIU/mL. In assay [3], this compound gave a pIC50 of 4.20.

Regarding `Cc1nc(C(=O)NCC(=O)O)c(O)c2ccc(-c3ccc(C(C)(C)C)cc3)nc12` [Compound 11, 2-{5-hydroxy-8-methyl-[2-(4-tert-butyl)-phenyl]-[1,7]-naphthyridine-6-formamido} acetic acid], the “EPO level of the test substance” value in assay [1] amounted to 4.158 mIU/mL. For the same compound, the pIC50 in assay [3] is 4.41.

With `Cc1nc(C(=O)NCC(=O)O)c(O)c2ccc(-c3cccc(Br)c3)nc12` [Compound 12, 2-{5-hydroxy-[2-(3-bromo)-phenyl]-8-methyl-[1,7]-naphthyridine-6-formamido} acetic acid], the “EPO level of the test substance” value in assay [1] is 4.536 mIU/mL. Moreover, the negative-log IC50 (pIC50) in assay [3] is 5.39.

`O=C(O)CNC(=O)c1ncc2nc(-c3cccc(Br)c3)ccc2c1O` [Compound 13, 2-{5-hydroxy-2-(3-bromophenyl)-[1,7]-naphthyridine-6-formamido} acetic acid]: in assay [1], the “EPO level of the test substance” value was 0.832 mIU/mL. In addition, the pIC50 in assay [3] is 6.39.

For the compound `CC(C)(C)c1ccc(-c2ccc3c(O)c(C(=O)NCC(=O)O)ncc3n2)cc1` [Compound 16], the “EPO level of the test substance” value in assay [1] was determined as 7.046 mIU/mL. Further, the negative logarithm of the IC50 (pIC50) in assay [3] is 4.32.

Regarding `O=C(O)CNC(=O)c1ncc2nc(-c3ccc(Br)cc3)ccc2c1O` [Compound 17, 2-{5-hydroxy-[2-(4-bromo)-phenyl)-[1,7]-naphthyridine-6-formamido} acetic acid], the “EPO level of the test substance” value in assay [1] is given as 7.757 mIU/mL. The compound also gave a pIC50 in assay [3] of 4.70.

Take `O=C(O)CNC(=O)c1ncc2nc(-c3cccs3)ccc2c1O` [Compound 18]: the “EPO level of the test substance” value in assay [1] is reported as 8.888 mIU/mL. The same compound gave a pIC50 in assay [3] of 5.24.

On to `O=C(O)CNC(=O)c1ncc2nc(-c3ccc4ccccc4c3)ccc2c1O` [Compound 19, [(5-hydroxy-2-(naphthalen-2-yl)-[1,7]naphthyridine-6-carbonyl)-amino]-acetic acid], for which, in assay [1], the “EPO level of the test substance” value was 9.786 mIU/mL. This compound gave a pIC50 in assay [3] of 5.12.

Consider `O=C(O)CNC(=O)c1ncc2nc(-c3cccc(F)c3)ccc2c1O` [Compound 20, 2-{5-hydroxy-[2-(3-fluoro)-phenyl]-[1,7]-naphthyridine-6-formamido} acetic acid], for which, in assay [1], the “EPO level of the test substance” value amounted to 10.685 mIU/mL. The same compound had a negative-log IC50 (pIC50) in assay [3] of 6.09.

As for `Cc1nc(C(=O)NCC(=O)O)c(O)c2ccc(-c3cccc([N+](=O)[O-])c3)nc12` [Compound 21, 2-{5-hydroxy-[2-(3-nitro)-phenyl]-8-methyl-[1,7]-naphthyridine-6-formamido} acetic acid], the “EPO level of the test substance” value in assay [1] stood at 0.325 mIU/mL. Moreover, the pIC50 in assay [3] was 4.85.

Regarding `Cc1nc(C(=O)NCC(=O)O)c(O)c2ccc(-c3ccc(C#N)cc3)nc12` [Compound 22, 2-{5-hydroxy-[2-(4-cyano)-phenyl]-8-methyl-[1,7]-naphthyridine-6-formamido} acetic acid], the “EPO level of the test substance” value in assay [1] amounted to 0.53 mIU/mL. The pIC50 in assay [3] was 5.03.

`Cc1nc(C(=O)NCC(=O)O)c(O)c2ccc(Oc3ccccc3)cc12` [FG-4592, reference compound]: the “EPO level of the test substance” value in assay [1] was found to be 0.378 mIU/mL. Moreover, the “RETIC, individual mice (Mice No. 1-8)” value in assay [2] (25 mg/kg, oral, once a day × 3, listed as FG-4592-A) was 3.6 and 3.8 (2×) and 4 (2×) and 3.5 and 4.4 and 3.4. For the same compound, the “RETIC, Average” value in assay [2] (25 mg/kg, oral, once a day × 3) was determined as 3.73.

On to “EPO: erythropoietin, glycoprotein hormone; positive control given by subcutaneous injection”, for which, in assay [2] (setting [4]), the “RETIC, individual mice (Mice No. 1-8)” value was 5 and 5.9 and 2.5 and 2.2 (2×) and 2.6 and 4.3 and 5.1; the “RETIC, Average” value worked out at 3.73.
